From the NIST ThermoML archive (doi:10.1021/je200668a)
Where “and” joins values, the source holds several entries; their conditions need not be identical. Equal values may be shown once.

Conditions: Liquid, Pulse Transmission

O [water]
Conditions	speed of sound
252.47 K, 215100 kPa	1715.3 m/s
252.47 K, 220000 kPa	1725.1 m/s
252.5 K, 205200 kPa	1695.9 m/s
252.5 K, 209900 kPa	1705.2 m/s
252.5 K, 215300 kPa	1716.8 m/s
252.5 K, 240000 kPa	1764.3 m/s
252.51 K, 220200 kPa	1726.7 m/s
252.51 K, 235100 kPa	1754.9 m/s
252.51 K, 245400 kPa	1774.8 m/s
252.52 K, 210100 kPa	1705.8 m/s and 1706 m/s
252.52 K, 244900 kPa	1773.9 m/s
252.53 K, 200100 kPa	1685.4 m/s
252.53 K, 204800 kPa	1695.3 m/s
252.53 K, 215300 kPa	1716.3 m/s
252.53 K, 225100 kPa	1735.1 m/s
252.53 K, 230000 kPa	1745 m/s and 1745.4 m/s
252.53 K, 240100 kPa	1764.5 m/s
252.54 K, 235200 kPa	1755.1 m/s
252.54 K, 239200 kPa	1762.7 m/s
252.54 K, 245000 kPa	1774.1 m/s
252.55 K, 225000 kPa	1736.1 m/s
252.56 K, 204900 kPa	1695.4 m/s
252.57 K, 198900 kPa	1683.1 m/s
252.57 K, 199400 kPa	1684.1 m/s
252.57 K, 229900 kPa	1744.6 m/s
252.57 K, 235200 kPa	1754.8 m/s
252.59 K, 225100 kPa	1735.8 m/s
252.61 K, 220300 kPa	1726.3 m/s
257.59 K, 225300 kPa	1755 m/s
257.6 K, 175100 kPa	1654.5 m/s
257.61 K, 199500 kPa	1703.9 m/s
257.61 K, 275200 kPa	1847.7 m/s
257.62 K, 274400 kPa	1845.4 m/s
257.64 K, 250200 kPa	1801.3 m/s
257.65 K, 224100 kPa	1752.6 m/s
257.65 K, 276100 kPa	1848.6 m/s
257.66 K, 199900 kPa	1705.5 m/s
257.66 K, 299900 kPa	1889.6 m/s
257.67 K, 249400 kPa	1799.8 m/s
257.67 K, 299700 kPa	1889.4 m/s
257.67 K, 300200 kPa	1890.9 m/s
257.67 K, 374600 kPa	2011.2 m/s
257.68 K, 325400 kPa	1932.5 m/s
257.68 K, 375300 kPa	2012.5 m/s
257.69 K, 176400 kPa	1657.4 m/s
257.69 K, 199600 kPa	1704.5 m/s
257.69 K, 249500 kPa	1800.5 m/s
257.69 K, 349300 kPa	1972.1 m/s
257.69 K, 350000 kPa	1972.9 m/s
257.7 K, 176200 kPa	1657.4 m/s
257.7 K, 224600 kPa	1754 m/s
257.7 K, 325000 kPa	1928.5 m/s
257.7 K, 325400 kPa	1932.5 m/s
262.63 K, 299800 kPa	1906 m/s
262.65 K, 224800 kPa	1771.8 m/s
262.68 K, 250600 kPa	1820.4 m/s
262.71 K, 324500 kPa	1944.4 m/s
262.71 K, 349400 kPa	1982.7 m/s
262.71 K, 399900 kPa	2060 m/s
262.72 K, 274600 kPa	1861.2 m/s
262.72 K, 374300 kPa	2023.2 m/s
262.72 K, 424300 kPa	2095.3 m/s
262.73 K, 249700 kPa	1816.5 m/s
262.73 K, 299400 kPa	1903.1 m/s
262.73 K, 324600 kPa	1945.1 m/s
262.73 K, 349600 kPa	1984.2 m/s
262.74 K, 124100 kPa	1574.1 m/s
262.74 K, 199800 kPa	1725.4 m/s
262.74 K, 299600 kPa	1903.2 m/s
262.74 K, 425600 kPa	2097.8 m/s
262.74 K, 449400 kPa	2130.8 m/s
262.74 K, 450500 kPa	2133 m/s
262.75 K, 274500 kPa	1860.6 m/s
262.76 K, 148400 kPa	1623.4 m/s
262.76 K, 150700 kPa	1629.8 m/s
262.76 K, 199800 kPa	1724.8 m/s
262.76 K, 224600 kPa	1772.3 m/s
262.76 K, 251000 kPa	1819.5 m/s
262.76 K, 350600 kPa	1986.4 m/s
262.76 K, 375100 kPa	2023 m/s
262.76 K, 399300 kPa	2058.1 m/s
262.77 K, 126300 kPa	1578.6 m/s
262.77 K, 174800 kPa	1677.2 m/s and 1676.9 m/s
262.78 K, 399700 kPa	2061.2 m/s
262.81 K, 149800 kPa	1626.1 m/s
262.81 K, 200800 kPa	1728.7 m/s
267.77 K, 199500 kPa	1744.1 m/s
267.78 K, 100800 kPa	1554.9 m/s
267.78 K, 300400 kPa	1918.4 m/s
267.78 K, 349700 kPa	1997.2 m/s
267.79 K, 149600 kPa	1649.8 m/s and 1648.8 m/s
267.79 K, 399600 kPa	2070.9 m/s
267.79 K, 500400 kPa	2208.8 m/s
267.8 K, 249400 kPa	1833.6 m/s
267.8 K, 449300 kPa	2141.5 m/s
267.81 K, 98500 kPa	1551.2 m/s
267.82 K, 400000 kPa	2071.6 m/s
267.84 K, 100500 kPa	1554.9 m/s
267.84 K, 199500 kPa	1744.6 m/s
267.84 K, 450700 kPa	2144.1 m/s
267.84 K, 500100 kPa	2209.7 m/s
267.85 K, 299400 kPa	1918.6 m/s
267.86 K, 399700 kPa	2071.2 m/s
267.87 K, 249600 kPa	1835 m/s
267.87 K, 251100 kPa	1837.5 m/s
267.87 K, 349700 kPa	1997.5 m/s
267.87 K, 449200 kPa	2142.4 m/s
267.88 K, 150800 kPa	1652.5 m/s
267.88 K, 299600 kPa	1919.3 m/s
